From patent publication US20240425555A1, “MUTANT BRD4 POLYPEPTIDES AND METHODS OF USE THEREOF” (Northwestern University, priority 2023, published 2024)
Values belong to the compound of their own block, whether it stands above or below them.

How the values were obtained:
[1] = target: BRD4 (UniProt O60885+Q38825); assay: Western blot of BRD4 degradation in BRD4-IAA7 degron line; assay type: cell-based, human; settings: BRD4-IAA7 DLD1 degron line; auxin 500 uM 2 or 3 h; JQ1 1 uM or dBET6 250 nM 3 h
[2] = tested on: Pol II pausing; assay: total Pol II ChIP-seq upon auxin, JQ1, dBET6 or NVP-2 treatment; assay type: cell-based, human; settings: for Pol II pausing (Pol II occupancy profile): auxin 500 uM, JQ1 1 uM, dBET6 250 nM, 3 h
Source text: FIG. 1A illustrates the updated BRD4-IAA7 degron line. The F-box protein AtAFB2 was integrated into the C terminus of the BRD4 locus under the control of an independent promoter. […] These treatment concentrations/durations are relevant to all of FIG. 1. […] The gene list (N=6481) in this analysis is used throughout the study (except for FIGS. 3H-J). FIG. 1D illustrates the estimated Cumulative Density Function (ECDF) of pause release ratios (PRR, reported as log 2 fold change) for auxin treatment vs untreated control. The PRR is the ratio of Pol II occupancy within gene bodies to its occupancy at promoters. A leftward shift of the curve indicates an increase in the frequency and/or duration of promoter-proximal pausing, while a rightward shift indicates reduced pausing and/or more efficient release into gene bodies.
FIGS. 8A-8E. collectively illustrate the differences in Pol II pausing induced by BRD4 depletion and bromodomain inhibition, related to FIG. 1. FIG. 8A illustrates the western blot showing the expression of HA-tagged AtAFB2 and the auxin-induced degradation of V5-tagged BRD4 using anti-tag antibodies. FIG. 8B illustrates the western blot comparing the BRD4 protein expression level and degradation kinetics of the previously published BRD4-AID degron to those of the BRD4-IAA7 degron used in this study 12. Note: in FIGS. 8A and 8B, the BRD4-IAA7 clone used is D4 (Hygromycin selected); it is G3 (Neomycin selected) otherwise in the study. […] FIG. 8E illustrates the track examples of Pol II ChIP-seq signal at the HSPA8 and GAPDH loci upon NVP-2 treatment (2 h) and corresponding heatmaps showing Pol II occupancy profiles and fold change in occupancy vs control upon NVP-2 treatment.
To specifically deplete BRD4 without affecting other BET proteins, we generated an updated BRD4 degron line by modifying the published miniIAA7 degron system (hereafter BRD4-IAA7) to reduce basal degradation seen with AID degron-tagged BRD4^30 (FIGS. 1A and 8A).
DLD1 cells were crosslinked with 15 ml 1% PFA (ThermoFisher, #28908) in PBS on 15 cm plates for 10 minutes at RT and quenched by the addition of 2 ml 2.5M glycine followed by shaking for 5 minutes. Crosslinked cells were collected by scraping. Chromatin sonication was performed for 10 minutes using a Covaris E200 set to 10% duty factor, 200 cycles per burst, and 140 peak intensity power. For endogenous protein ChIP, 10-20% of mouse embryonic fibroblasts (MEF) chromatin (prepared the same way as in DLD1 cells) was added to each sample as a spike-in control. For overexpressed protein ChIP, such as GFP-ChIP, 20 ng spike-in chromatin (Active Motif, #53083) and 2 ug spike-in antibody (Active Motif, #61686) were added to each sample. Immunoprecipitation was carried out at 4° C. overnight using 5ul of Rpb1 (Cell Signaling Technology, #D8L4Y), 5ul of Ser2p (Active Motif, #61984), 10ul of CCNT1 (Cell Signaling Technology, #81464), 10ul of CDK9 (Santa Cruz Biotechnology, #sc-13130 X) antibodies, or 200ul of a cocktail consisting of 50ul of each GFP antibody (DSHB, #GFP-G1, #GFP-12A6, #GFP-12E6, #GFP-8H11). Immune complexes were enriched with Protein G-coupled Dynabeads (Invitrogen, #10004D) at 4° C. for >=4 h, and incubated with proteinase K (Roche, #3115828001) to reverse crosslink at 65° C. overnight. Eluted DNA was purified with the QIAquick PCR Purification Kit (Qiagen, #28106), and libraries were prepared using the KAPA HTP library preparation kit (Roche, #07961901001) for sequencing on the NovaSeq 6000.
Reads were aligned to hg38 with bowtie 1/250. Genes (N=6,481) with pausing site and TES annotation were obtained from a previously published study51. Promoter regions were designated as spanning from 100 bp upstream to 300 bp downstream of the pausing site. Gene body regions were designated as spanning from 300 bp downstream of the pausing site to the TES. FeatureCounts 2.0.152 was used to calculate the total mapped reads from Pol II ChIP-seq at promoters and within gene bodies. […]

[3] = target: T1, PTEFb (Homo sapiens, UniProt O60563+P50750); assay: BRD4 IP / GFP IP competition for PTEFb by C46 or p46; assay type: binding; design: endogenous in cells; lysate of unnamed cells for the p46 addition
T1 sequence (P50750 whole entry): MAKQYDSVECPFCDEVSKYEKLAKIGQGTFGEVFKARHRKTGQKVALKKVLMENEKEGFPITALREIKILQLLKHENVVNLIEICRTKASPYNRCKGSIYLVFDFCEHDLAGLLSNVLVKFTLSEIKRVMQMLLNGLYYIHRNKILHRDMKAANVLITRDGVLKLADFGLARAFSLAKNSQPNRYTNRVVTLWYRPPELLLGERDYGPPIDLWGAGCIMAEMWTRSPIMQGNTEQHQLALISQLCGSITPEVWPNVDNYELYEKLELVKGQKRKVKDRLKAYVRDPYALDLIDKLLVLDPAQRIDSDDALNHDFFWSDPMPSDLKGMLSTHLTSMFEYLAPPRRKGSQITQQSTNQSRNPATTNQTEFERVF
T1 sequence (O60563 whole entry): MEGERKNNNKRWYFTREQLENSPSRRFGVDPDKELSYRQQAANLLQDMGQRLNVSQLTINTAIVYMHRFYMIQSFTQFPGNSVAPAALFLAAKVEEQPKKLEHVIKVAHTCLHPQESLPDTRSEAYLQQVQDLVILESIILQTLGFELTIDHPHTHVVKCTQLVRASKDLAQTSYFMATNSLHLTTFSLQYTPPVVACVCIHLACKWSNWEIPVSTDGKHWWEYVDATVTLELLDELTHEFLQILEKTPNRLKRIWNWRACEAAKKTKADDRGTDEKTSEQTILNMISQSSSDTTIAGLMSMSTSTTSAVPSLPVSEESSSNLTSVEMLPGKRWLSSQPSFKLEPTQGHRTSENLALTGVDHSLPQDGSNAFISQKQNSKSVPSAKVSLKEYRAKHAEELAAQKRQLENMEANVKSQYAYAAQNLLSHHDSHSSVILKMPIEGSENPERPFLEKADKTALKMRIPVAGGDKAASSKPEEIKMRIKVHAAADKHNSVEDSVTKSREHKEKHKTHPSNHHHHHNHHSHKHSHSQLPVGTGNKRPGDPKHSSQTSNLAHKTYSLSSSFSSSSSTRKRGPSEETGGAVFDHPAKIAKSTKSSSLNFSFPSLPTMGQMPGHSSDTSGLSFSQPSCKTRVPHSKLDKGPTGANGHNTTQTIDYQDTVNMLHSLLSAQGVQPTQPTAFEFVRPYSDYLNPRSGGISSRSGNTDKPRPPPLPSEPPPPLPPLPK
Source text: FIGS. 14A-14G. Identification of essential PTEFb binding sites in BRD4's C-terminus. FIG. 14A. Schematic showing the constructs of Dox inducible GFP-tagged BRD4 C terminus mutants with residue length indicated. Western blot of GFP IP for these two mutants upon Dox induction for 2 days showing both mutants can interact with PTEFb. FIG. 14B. […] Auxin treatment serves as a positive control for the loss of endogenous BRD4. FIG. 14C. […] FIG. 14D. […] FIG. 14E. Schematic showing the sequence alignment of the 46 residues in the C terminus of BRD4 and BRDT as well as the alanine scanning strategy to mutate each site for 3 amino acids at one time. FIG. 14F. Comparison of the ability to pull down PTEFb by Bio-p46/Bio-p46* and Biotin-labeled BRDT C terminus 46 residues (Bio-pT46) as well as Biotin-labeled BRD4 C terminus 46 residues with each of the sites mutated to AAA as shown in E (Bio-p1 to p7). FIG. 14G. Western blot of GFP IP showing the amount of PTEFb binding to GFP-tagged BRD4 C terminus fragment of 340 residues (WT) and its mutants with each of the sites mutated to AAA as indicated in E (A-H).
FIGS. 15A-15E. FIG. 15A. Spectral counts for BRD4, CCNT1, and CDK9 from the GFP IP for the GFP-tagged BRD4 C terminus fragment of 340 residues (C) and 46 residues (C46) followed by mass spectrometry. […] Quantitative curves of PTEFb signal intensity from western blot in D against increasing concentration of p46. […]

[4] = target: T1, PTEFb; assay: Peptide titration: p46 competition in Bio-p46 pull down assay; assay type: binding; design: endogenous in cells
Source text: FIGS. 15A-15E. FIG. 15A. Spectral counts for BRD4, CCNT1, and CDK9 from the GFP IP for the GFP-tagged BRD4 C terminus fragment of 340 residues (C) and 46 residues (C46) followed by mass spectrometry. FIG. 15B. Western blot validation for the mass spectrometry using the remaining GFP IP samples from one of the replicates. FIG. 15C. […] FIG. 15D. […] FIG. 15E. Quantitative curves of PTEFb signal intensity from western blot in D against increasing concentration of p46.
To pull down PTEFb by Biotin-labeled peptide, cells were lysed with Triton X-100 lysis buffer as used for GFP IP. Biotin-labeled peptides were pre-incubated with streptavidin beads at room temperature for 30 min. Conjugated beads were then washed with lysis buffer twice before adding to the cell lysate. Pulldown was carried out at 4° C. by rotating for >=4 h, followed by 5 times wash with lysis buffer. To elute, 4× Laemmli sample buffer was added and boiled for 10 min. For the peptide titration experiment, a series of concentration of p46 was pre-incubated with same amount of cell lysate for 1 h at 4° C. Same amount of Bio-p46 conjugated streptavidin beads were used to pull down PTEFb for >=4 h. PTEFb signal intensity from western blot was determined by Image Lab from Bio-Rad.

[5] = target: T1, PTEFb; assay: GFP IP-MS and GFP IP western blot of GFP-tagged BRD4 constructs; assay type: binding; settings: GFP-tagged; for binding to PTEFb (western blot for GFP IP): Dox 2 days
[6] = tested on: Pol II pausing; settings: reference 21; cited from earlier work
[7] = target: T2, BRDT (Homo sapiens, UniProt Q58F21); assay: Western blot of dBET6 treatment in NCIH2009 cells (BRDT); assay type: cell-based; settings: dBET6 3 h
T2 construct: endogenous in cells; host or cells: NCIH2009
Source text: FLAG antibody (#F1804) was obtained from Millipore Sigma. […] H3 antibody was generated in-house.

[8] = tested on: Ser2P; assay: Ser2P ChIP-seq upon JQ1 or dBET6 treatment; assay type: cell-based, human; settings: BRD4-IAA7 cells; series concentration of JQ1 or 250 nM dBET6, 3 h
Protocol: FIGS. 5A-5J collectively illustrate the identification of a distinct BRD4-PTEFb population, which is active but not histone acetylation-bound. FIG. 5A illustrates the track examples for AID ChIP-seq in the BRD4-AID line and CCNT1 ChIP-seq in the BRD4-IAA7 line with/without auxin treatment (3 h). H3K27ac ChIP-seq signal in the BRD4-AID line is shown for comparison. FIG. 5B illustrates the heatmap showing the genome-wide BRD4 and CCNT1 occupancy profile and the corresponding fold change upon auxin treatment for the conditions in A. Genes ranked by BRD4 signal in control. FIG. 5C illustrates the scatter plot showing the relative promoter density of CCNT1 vs BRD4, calculated by the log 2RPKM of the ChIP-seq signals at the regions flanking (±1 Kb) the Pol II pausing sites. FIG. 5D illustrates the track examples for GFP ChIP-seq signal upon induction of GFP-tagged BRD4-FL or the indicated mutants (left). Heatmap showing the genome-wide fold changes of the GFP-tagged BRD4 mutants relative to the vector (right). The endogenous BRD4 was depleted by auxin treatment (3 h) in all samples. Genes are ranked by GFP signal in the GFP-BRD4-FL condition. FIG. 5E illustrates the track examples for CCNT1 ChIP-seq signal upon endogenous BRD4 depletion and rescue with indicated GFP-tagged mutants (left). Heatmap showing the genome-wide CCNT1 fold changes (right). […]

- amount of PTEFb bound to endogenous BRD4 or overexpressed GFP-tagged C46 ([3]; p46 added to cell lysate prior to IP): significantly decreased
- binding of PTEFb to Bio-p46 ([4]; cell lysate pre-incubated with increasing concentration of p46): decreased binding of PTEFb
- "IC50" ([4]; competition between free and biotin-labelled peptides, in vitro): hundred nanomole level
Compound: p46: synthetic peptide of the BRD4 C terminus 46 residues

- binding to PTEFb (western blot for GFP IP) [5]: bind to PTEFb strongly
Compound: C46: BRD4 C terminus 46aa (SEQ ID NO: 1) expressed in cells with a GFP tag
- interaction with PTEFb (GFP IP-MS) ([5]; Dox 50 nM 2 days): does not impair its interaction with PTEFb
- competition with endogenous BRD4 for PTEFb (endogenous BRD4 IP) ([3]; C46 expressed in BRD4-V5-IAA7 degron line): competes with the endogenous BRD4 for PTEFb

Continued, compound first:

Compound: O=C(O)Cc1c[nH]c2ccccc12 [auxin]
- BRD4 degradation (western blot) [1]: rapidly degraded
- Pol II pausing (Pol II occupancy profile) ([2]; BRD4-IAA7 cells): inducing pausing at the majority of Pol II-transcribed genes

Compound: C85: BRD4 C terminus 85aa expressed in cells with a GFP tag
- binding to PTEFb (western blot for GFP IP) [5]: bind to PTEFb strongly

Compound: NVP2
- Pol II pausing genome-wide upon CDK9 inhibition ([2]; DLD1 cells, NVP-2 treatment 2 h): induced strong Pol II pausing genome-wide

Compound: Cc1sc2c(c1C)C(c1ccc(Cl)cc1)=N[C@@H](CC(=O)NCCCCCCCCNC(=O)COc1cccc3c1C(=O)N(C1CCC(=O)NC1=O)C3=O)c1nnc(C)n1-2 (stereo partly drawn) [dBET6]
- effect on Pol II pausing (RNA-seq, NET-seq) [6]: dramatic, genome-wide increase in paused Pol II at promoters
- degradation of endogenous BRDT [7]: degraded
- Pol II pausing (Pol II occupancy profile) ([2]; BRD4-IAA7 cells): inducing pausing at the majority of Pol II-transcribed genes
- gene-by-gene log 2PRR correlation with auxin treatment ([2]; BRD4-IAA7 cells, scatter plot): much stronger
- Ser2P ChIP-seq signals [8]: Ser2P signal fade away
